One data set deals with HCV Replicon 1b. The experiment in a line: HCV inhibition assay, HCV replicon 1b (Clone A or ET-lunet cells; RT-PCR or luciferase reporter). In kind it is cell-based. The note with it: Hepatitis C virus, 96 h, HCV replicon 1b; 4 days incubation; read-out: Replicon 1b potency EC90. An outline of the steps:
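Inhibition read either as luciferase signal (ET replicon) or as HCV 5′-NTR RNA by RT-PCR relative to rRNA, % = (1−2^−ΔΔCt)×100, against DMSO controls, giving EC50 and EC90. Cells: Clone A or ET-lunet, seeded 1500 or 3000/well, exposed 4 days at 37 °C, 5% CO2, 0.5% DMSO.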
For orientation: A replicon is a self-replicating genome or part of one, used to study replication in cells.

Data set [1] can be described thus: Cell cytotoxicity assay (MTS), CC90 as reported in Table 1, cell line not stated. The note with it: human, cell line not given. In kind it is cell-based. The method, boiled down:
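MTS read-out (490 nm, 2 h dye step) after 8-day exposure at 37° C. Huh7, HepG2, BxPC3 were seeded at 2×10^3 and CEM at 5×10^3 cells/well, with compound serially diluted from 100 μM. CC90 comes from comparison with untreated control wells.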

For `CC(C)C[C@H]1CN(C(=O)c2noc3c2CCc2cc(F)ccc2-3)[C@@H](CC(C)C)C(=O)N1` [Compound 302, (3S,6S)-3,6-Diisobutyl-4-(7-fluoro-4,5-dihydronaphtho[2,1-d]isoxazole-3-carbonyl)piperazin-2-one], in the data set with HCV Replicon 1b, the 90% effect concentration (EC90) (commonly the point of the concentration-response curve where the effect stands at 90%) is 1410 nM. The molecule also yielded a CC90 at 8 days in data set [1] (MTS assay, 8 days incubation) of over 10000 nM.
Regarding `CC(C)C[C@H]1CN(C(=O)c2cc(-c3cccc(OC(F)(F)F)c3)on2)[C@@H](CC(C)C)C(=O)N1` [Compound 138], in the data set with HCV Replicon 1b, the EC90 amounted to 7040 nM. The CC90 at 8 days in data set [1] was over 10000 nM.
Consider `CC(C)C[C@H]1C(=O)N[C@@H](CC2CC2)CN1C(=O)[C@@H]1C[C@H]1c1ccc(F)cc1` [Compound 297, (3S,6S)-4-[(1R,2R)-2-(4-Fluoro-phenyl)-cyclopropanecarbonyl]-6-cyclopropyl-methyl-3-isobutyl-piperazin-2-one], for which the 90% effect concentration (EC90) in the data set on HCV Replicon 1b was determined as 410 nM. The same molecule had a CC90 at 8 days in data set [1] (MTS assay, 8 days incubation) of over 10000 nM.
For the molecule `CC(C)C[C@H]1CN(Cc2ccc(F)cc2C(F)(F)F)[C@@H](CC(C)C)C(=O)N1` [Compound 220, (3S,6S)-4-(4-fluoro-2-(trifluoromethyl)benzyl)-3,6-diisobutylpiperazin-2-one], in the data set with HCV Replicon 1b, the EC90 is 8350 nM. Also, the CC90 at 8 days in data set [1] is over 10000 nM.
Regarding `CSC[C@H]1C(=O)N[C@@H](c2ccccc2)CN1C(=O)[C@@H]1C[C@H]1c1ccc(F)cc1` [Compound 460, (3R,6S)-4-((1R,2R)-2-(4-fluorophenyl)cyclopropanecarbonyl)-3-((methylthio)-methyl)-6-phenylpiperazin-2-one], the EC90 in the data set on HCV Replicon 1b was 1160 nM. For the same molecule, the CC90 at 8 days in data set [1] (MTS assay, 8 days incubation) was over 10000 nM.
On to `CC(C)C[C@H]1C(=O)N[C@@H](CC2CC2)CN1C(=O)c1cc(-c2ccc(F)cc2)on1` [Compound 167], for which the EC90 with HCV Replicon 1b stood at 450 nM. In data set [1], the CC90 at 8 days was over 10000 nM.
As for `CC(C)C[C@H]1C(=O)N[C@@H](c2ccccc2)CN1C(=O)[C@@H]1C[C@H]1c1ccc(F)cc1` [Compound 247, (3S,6S)-4-[(1R,2R)-2-(4-Fluoro-phenyl)-cyclopropanecarbonyl]-3-isobutyl-6-phenyl-piperazin-2-one], the concentration for an effect of 90% (EC90) with HCV Replicon 1b was 50 nM. In data set [1], this molecule yielded a CC90 at 8 days of over 10000 nM.
The corresponding values for `CC(C)C[C@H]1C(=O)N[C@@H](C(C)C)CN1C(=O)c1cc(-c2ccc(Cl)cc2)on1` [Compound 181] are 230 nM and over 10000 nM.
With `CC[C@@H](C)[C@H]1C(=O)N[C@@H](c2ccccc2)CN1C(=O)[C@@H]1C[C@H]1c1ccccc1` [Compound 341, (3S,6S)-3-((R)-sec-butyl)-6-phenyl-4-((1R,2R)-2-phenylcyclopropanecarbonyl)-piperazin-2-one], the EC90 in the data set on HCV Replicon 1b is 2540 nM. The molecule further displayed a CC90 at 8 days in data set [1] (MTS assay, 8 days incubation) of over 10000 nM.
With `CC(C)(C)C[C@H]1C(=O)N[C@@H](c2ccccc2)CN1C(=O)c1cc(-c2ccc(F)cc2)on1` [Compound 342, (3S,6S)-4-(5-(4-fluorophenyl)isoxazole-3-carbonyl)-3-neopentyl-6-phenylpiperazin-2-one], the EC90 in the data set on HCV Replicon 1b is 200 nM. This molecule displayed a CC90 at 8 days in data set [1] (MTS assay, 8 days incubation) of over 10000 nM.
Consider `CC(C)C[C@H]1C(=O)N[C@@H](C2CCCCC2)CN1C(=O)c1cc(-c2ccc(F)cc2F)on1` [Compound 156], for which the EC90 in the data set with HCV Replicon 1b was found to be 1150 nM. This molecule also came in with a CC90 at 8 days in data set [1] of over 10000 nM.
On to `CC(C)C[C@H]1C(=O)NC[C@H](c2ccccc2)CN1C(=O)c1cc(-c2ccc(F)cc2)on1` [Compound 420, (3S,6S)-3-isobutyl-6-phenyl-4-(5-(4-fluorophenyl)isoxazole-3-carbonyl)-1,4-diazepan-2-one], for which the 90% effect concentration (EC90) with HCV Replicon 1b is over 10000 nM. This molecule had a CC90 at 8 days in data set [1] (MTS assay, 8 days incubation) of over 10000 nM.
On to `CC(C)C[C@H]1CN(C(=O)c2cc(-c3cc(F)cc(F)c3)on2)[C@@H](CC(C)C)C(=O)N1` [Compound 287, (3S,6S)-4-(5-(3,5-difluorophenyl)isoxazole-3-carbonyl)-3,6-diisobutylpiperazin-2-one], for which, in the data set on HCV Replicon 1b, the EC90 came to 3570 nM. This molecule also gave a CC90 at 8 days in data set [1] (MTS assay, 8 days incubation) of over 10000 nM.
Turning to `CC(C)C[C@H]1C(=O)N[C@@H](C2CCCCC2)CN1C(=O)[C@@H]1C[C@H]1c1ccccc1` [Compound 231, (3S,6S)-6-cyclohexyl-3-isobutyl-4-((1R,2R)-2-phenylcyclopropanecarbonyl)-piperazin-2-one], the EC90 in the data set with HCV Replicon 1b amounted to 930 nM. This molecule displayed a CC90 at 8 days in data set [1] of over 10000 nM.
The corresponding values for `CC(C)C[C@H]1CN(C(=O)/C=C/c2ccc(F)cc2F)[C@@H](CC(C)C)C(=O)N1` [Compound 87] are 570 nM and over 10000 nM.
As to `CC(C)C[C@H]1CN(C(=O)c2cc(-c3ccc(F)c(F)c3)on2)[C@@H](CC(C)C)C(=O)N1` [Compound 123], the EC90 in the data set with HCV Replicon 1b was determined as 970 nM. This molecule yielded a CC90 at 8 days in data set [1] of over 10000 nM.
On to `CC(C)C[C@H]1C(=O)N[C@@H](c2ccccc2)N1C(=O)[C@H]1C[C@@H]1c1ccccc1` [Compound 530, (2R,5S)-5-isobutyl-2-phenyl-1-((1S,2S)-2-phenylcyclopropanecarbonyl)imidazolidin-4-one], for which, in the data set with HCV Replicon 1b, the EC90 was over 10000 nM. In addition, in data set [1] (MTS assay, 8 days incubation), the CC90 at 8 days was over 10000 nM.
Turning to `CC(C)C[C@H]1C(=O)N[C@@H](c2ccccc2F)CN1C(=O)/C=C/c1ccc(F)cc1F` [Compound 374, (3S,6S)-4-((E)-3-(2,4-difluorophenyl)acryloyl)-6-(2-fluorophenyl)-3-isobutylpipera-zin-2-one], the EC90 with HCV Replicon 1b stood at 750 nM. The molecule further yielded a CC90 at 8 days in data set [1] (MTS assay, 8 days incubation) of over 10000 nM.
Consider `CC(C)C[C@H]1CN(Cc2cc(-c3ccc(Br)cc3)on2)[C@@H](CC(C)C)C(=O)N1` [Compound 198], for which, in the data set on HCV Replicon 1b, the EC90 stood at 550 nM. This molecule also yielded a CC90 at 8 days in data set [1] of over 10000 nM.
`CC(C)C[C@H]1CN(C(=O)c2noc(-c3ccc(F)cc3)n2)[C@@H](CC(C)C)C(=O)N1` [Compound 293, (3S,6S)-4-(5-(4-Fluorophenyl)-1,2,4-oxadiazole-3-carbonyl)-3,6-diisobutylpiperazin-2-one]: the EC90 in the data set on HCV Replicon 1b is 270 nM. Besides, in data set [1] (MTS assay, 8 days incubation), the CC90 at 8 days was over 10000 nM.
Regarding `CC(C)C[C@H]1CN(Cc2c(F)cccc2F)[C@@H](CC(C)C)C(=O)N1` [Compound 224, (3S,6S)-4-(2,6-Difluoro-benzyl)-3,6-diisobutyl-piperazin-2-one], in the data set with HCV Replicon 1b, the EC90 is 8360 nM. The CC90 at 8 days in data set [1] was over 10000 nM.
For `Cc1ccsc1[C@H]1CN(C(=O)[C@@H]2C[C@H]2c2ccc(F)cc2)[C@@H](CC(C)C)C(=O)N1` [Compound 438, (3S,6R)-4-((1R,2R)-2-(4-fluorophenyl)cyclopropanecarbonyl)-3-isobutyl-6-(3-methylthiophen-2-yl)piperazin-2-one], the EC90 with HCV Replicon 1b is over 10000 nM. Further, in data set [1] (MTS assay, 8 days incubation), the CC90 at 8 days was over 10000 nM.
With `CCC[C@H]1CN(C(=O)c2noc(-c3ccc(F)c(F)c3)c2F)[C@@H](CC(C)C)C(=O)N1` [Compound 393, (3S,6S)-4-(5-(3,4-difluorophenyl)-4-fluoroisoxazole-3-carbonyl)-3-isobutyl-6-propylpiperazin-2-one], the 90% effect concentration (EC90) in the data set with HCV Replicon 1b worked out at 260 nM. The molecule also had a CC90 at 8 days in data set [1] (MTS assay, 8 days incubation) of over 10000 nM.
Consider `CC(C)C[C@H]1C(=O)N[C@@H](C2CC2)CN1Cc1cc(-c2ccc(F)cc2)on1` [Compound 216, (3S,6S)-6-cyclopropyl-4-((5-(4-fluorophenyl)isoxazol-3-yl)methyl)-3-isobutylpiperazin-2-one], for which the EC90 with HCV Replicon 1b came to 1600 nM. The same molecule showed a CC90 at 8 days in data set [1] of over 10000 nM.
With `CC(C)C[C@H]1C(=O)N[C@@H](c2ccccc2)CN1C(=O)c1cc(-c2ccc(Cl)cc2)on1` [Compound 183], in the data set with HCV Replicon 1b, the EC90 came to 60 nM. In data set [1], this molecule yielded a CC90 at 8 days of over 10000 nM.
Take `CC(C)C[C@H]1CN(C(=O)[C@@H]2C[C@H]2c2ccc(F)cc2)[C@@H](CC(C)C)C(=O)N1` [Compound 236, (3S,6S)-4-[(1R,2R)-2-(4-Fluoro-phenyl)-cyclopropanecarbonyl]-3,6-diisobutyl-piperazin-2-one]: the EC90 in the data set on HCV Replicon 1b worked out at 80 nM. In data set [1], this molecule registered a CC90 at 8 days of over 10000 nM.
In the case of `C/C=C/[C@H]1CN(C(=O)/C=C/c2ccc(F)cc2F)[C@@H](CC(C)C)C(=O)N1` [Compound 449, (3S,6S)-4-((E)-3-(2,4-difluorophenyl)acryloyl)-3-isobutyl-6-((E)-prop-1-en-1-yl)piperazin-2-one], the EC90 in the data set with HCV Replicon 1b was found to be 1190 nM. The molecule further came in with a CC90 at 8 days in data set [1] (MTS assay, 8 days incubation) of over 10000 nM.
For the molecule `CC(C)[C@H]1C(=O)N[C@@H](c2ccccc2)CN1C(=O)c1cc(-c2ccc(F)cc2)on1` [Compound 400, (3S,6S)-4-(5-(4-fluorophenyl)isoxazole-3-carbonyl)-3-isopropyl-6-phenylpiperazin-2-one], in the data set with HCV Replicon 1b, the EC90 worked out at 970 nM. This molecule registered a CC90 at 8 days in data set [1] (MTS assay, 8 days incubation) of over 10000 nM.
Turning to `CC(C)C[C@H]1C(=O)N[C@@H](c2cccs2)CN1C(=O)/C=C/c1ccc(F)cc1F` [Compound 434, (3S,6R)-4-((E)-3-(2,4-difluorophenyl)acryloyl)-3-isobutyl-6-(thiophen-2-yl)pipera-zin-2-one], in the data set on HCV Replicon 1b, the EC90 came out at 48 nM. The CC90 at 8 days in data set [1] (MTS assay, 8 days incubation) is over 10000 nM.
Turning to `CCC[C@H]1CN(C(=O)c2cc(-c3ccc(Cl)c(F)c3)on2)[C@@H](CC(C)C)C(=O)N1` [Compound 158], the EC90 in the data set on HCV Replicon 1b came out at 440 nM. Besides, the CC90 at 8 days in data set [1] was over 10000 nM.
Consider `CC(C)C[C@H]1C(=O)N[C@@H](C2CCCCC2)CN1C(=O)[C@@H]1C[C@H]1c1ccc(F)cc1` [Compound 241, (3S,6S)-6-Cyclohexyl-4-[(1R,2R)-2-(4-fluoro-phenyl)-cyclopropanecarbonyl]-3-isobutyl-piperazin-2-one], for which the 90% effect concentration (EC90) in the data set with HCV Replicon 1b worked out at 150 nM. The same molecule showed a CC90 at 8 days in data set [1] of over 10000 nM.
On to `CCC[C@H]1CN(C(=O)c2noc(-c3ccc(F)cc3)n2)[C@@H](CC(C)C)C(=O)N1` [Compound 290, (3S,6S)-4-(5-(4-fluorophenyl)-1,2,4-oxadiazole-3-carbonyl)-3-isobutyl-6-propylpiperazin-2-one], for which, in the data set with HCV Replicon 1b, the EC90 came out at 140 nM. The molecule also yielded a CC90 at 8 days in data set [1] (MTS assay, 8 days incubation) of over 10000 nM.

(Values after patent publication US20120202794A1 (priority 2011, published 2012).)
